Assay: xn = mol fraction of the nth substance listed
Settings: 101 kPa, x2 = 0.3209

CCCC[n+]1ccn(C)c1.O=S(=O)([O-])C(F)(F)F + NCCO
Settings	speed of sound [m/s]	viscosity [mPa·s]
298.15 K	1428.8	41.99
303.15 K	1417	34.4
308.15 K	1405.2	28.38
313.15 K	1393.2	23.76
318.15 K	1382.1	20.13
323.15 K	1370.6	17.25
328.15 K	1359.2	14.94
333.15 K	1348	13.05
